Laboratory results from patent publication EP0695544B1, “Hard gelatin capsules resistant to denaturation and the production thereof” (SHIONOGI & CO., LTD., priority 1994, dated 1996).
Entries after “also recorded” stand apart in the source; their conditions may differ. Where two headings read alike, the source gives them in different places.

Experiments:
[1] = Solubility of gelatin capsule shells filled with PEG 4000 and free radical scavenger after storage (Example 3); assay type: physicochemical; conditions: 5 parts scavenger + 95 parts PEG 4000 packed into capsule, 60°C for a week, content removed; 2nd solution of JP12 (37 °C)
Experimental: After storage in a tightly closed glass bottle at 60°C for a week, the capsule content was removed and solubility of each capsule shell was examined in the same manner as in Example 1.

[2] = capsule shells stored without contact over 95 parts PEG 6000 + 5 parts scavenger, 60°C for a week, 2nd solution of JP12 (37 °C), observed after 5 to 6 minutes

Compound	Solubility [1]	Solubility [2]	Solubility ([2]; listed as tocopherol)
O=P(=O)O [metaphosphoric acid]	soluble rapidly	–	–
polyphosphoric acid	soluble rapidly	–	–
Cc1cc2nc3c(=O)[nH]c(=O)nc-3n(C[C@H](O)[C@H](O)[C@H](O)CO)c2cc1C [riboflavin]	–	completely prevented the decrease of the solubility; also recorded: soluble rapidly	–
Cc1c(C)c2c(c(C)c1O)CC[C@@](C)(CCC[C@H](C)CCC[C@H](C)CCCC(C)C)O2 [d-α -tocopherol]	soluble rapidly	soluble rapidly	completely prevented the decrease of the solubility
N[C@@H](CCC(=O)N[C@@H](CS)C(=O)NCC(=O)O)C(=O)O [glutathione]	soluble rapidly	–	–
